Reference: patent EP3861991A1, “COMPOSITION FOR PREVENTING AND TREATING ACUTE AND CHRONIC WOUNDS” (Foodar Advanced Research S.r.l., priority 2020, dated 2021)

Tested on: HDF cells
Experiment: Scratch assay: fibroblast cell migration and wound closure
Type: cell-based, Human
Details: 10 µM, single components, Fig. 2
Procedure: Human dermal fibroblasts (HDF) (ATCC, Manassas, VA, USA) were grown in fibroblast basal medium supplemented with fibroblast growth kit-serum free (ATCC). Activation, proliferation and migration of fibroblasts are the primary steps in wound healing, where multiple cell types and other micro environmental factors are involved. Scratch assay is a widely applied In vitro technique for understanding the wound healing capabilities of medicinally important compounds. HDF cells were seeded in 6-well plates and were cultured overnight. Cells were then washed with Delbucco's Phosphate Buffered Saline (DPBS) and a scratch was made with a sterile 200µL tip. The detached cells and other cellular debris were removed by washing the cells with DPBS. The cells were treated with 10 µM of AND (source of Example 1), HYX (source of Example 1), or AND + HYX (1/1 ratio, same sources) and incubated for 24 h. Untreated cells were negative control. […] The experiments were performed in triplicate (n = 3). The width of the scratch and wound closure at different time intervals (0, 12, 24 and 48hrs) was analyzed by Image J software.

SMILES: C=C1CC[C@@H]2[C@](C)(CO)[C@H](O)CC[C@@]2(C)[C@@H]1C/C=C1/C(=O)OC[C@H]1O [AND, 3-[2-[Decahydro-6-hydroxy-5-(hydroxymethyl)-5,8a-dimethyl-2-methylene-1-napthalenyl]ethylidene]dihydro-4-hydroxy-2(3H)-furanone]
- percentage of cell migration (in words, relative to the AND+HYX combination): well lower
